These results are taken from patent US8747846B2, “Compositions and methods for immunization against drug resistant Acinetobacter baumannii” (priority 2011, dated 2014).

What all share (type): cell-based, Acinetobacter baumannii
One assay deals with A. baumannii HUMC6. Put plainly: microbe, parasite or virus in culture. The settings on record: for MIC: Acinetobacter baumannii.
Another assay relates to A. baumannii HUMC1. As to the kind of experiment: microbe, parasite or virus in culture. The note with it: for MIC: Acinetobacter baumannii.
For a further assay, the system named is A. baumannii ATCC 17978. As to the kind of experiment: Antibacterial minimum inhibitory concentrations for clinical isolates. The settings on record: strain ATCC 17978; for MIC: Acinetobacter baumannii, ATCC17978.
In the next assay the test system is A. baumannii HUMC5. As to the kind of experiment: microbe, parasite or virus in culture. The settings on record: for MIC: Acinetobacter baumannii.
The subject of another assay is A. baumannii HUMC4. As to the kind of experiment: microbe, parasite or virus in culture. The note with it: for MIC: Acinetobacter baumannii.
The next assay concerns A. baumannii HUMC12. Put plainly: microbe, parasite or virus in culture. The settings on record: for MIC: Acinetobacter baumannii.
[1] abbreviates: strain HUMC6, read-out: Antibacterial Minimum Inhibitory Concentrations.
Where [2] appears, read: HUMC1, read-out: Antibacterial Minimum Inhibitory Concentrations.
Setting [3] is: strain HUMC5, read-out: Antibacterial Minimum Inhibitory Concentrations.
Where [4] appears, read: strain HUMC4, read-out: Antibacterial Minimum Inhibitory Concentrations.
Setting [5] is: strain HUMC12, read-out: Antibacterial Minimum Inhibitory Concentrations.
[6] abbreviates: strain HUMC1, read-out: Antibacterial Minimum Inhibitory Concentrations.

Converted amounts (≈) assume the structure as drawn. Where two headings read alike, the source gives them in different places. Bounds are passed on as bounds.

As for `NCC[C@H](O)C(=O)N[C@@H]1C[C@H](N)[C@@H](O[C@H]2O[C@H](CN)[C@@H](O)[C@H](O)[C@H]2O)[C@H](O)[C@H]1O[C@H]1O[C@H](CO)[C@@H](O)[C@H](N)[C@H]1O` [Amikacin], the MIC is over 128 µg/mL in the assay with A. baumannii HUMC6 (setting [1]); over 128 µg/mL with A. baumannii HUMC1 (setting [2]); 8 µg/mL (≈ 13.7 µM) against A. baumannii ATCC 17978; over 128 µg/mL in the assay with A. baumannii HUMC5 (setting [3]); over 128 µg/mL in the assay with A. baumannii HUMC4 (setting [4]); over 128 µg/mL in the assay with A. baumannii HUMC12 (setting [5]).
`C[C@@H](O)[C@H]1C(=O)N2C(C(=O)O)=C(S[C@@H]3CN[C@H](CNS(N)(=O)=O)C3)[C@H](C)[C@H]12` [Doripenem]: the MIC with A. baumannii HUMC6 (setting [1]) was determined as 4 µg/mL (≈ 9.51 µM); in the assay on A. baumannii HUMC1 (setting [6]) it was 16 µg/mL (≈ 38 µM); in the assay with A. baumannii ATCC 17978, 0.5 µg/mL (≈ 1.19 µM); with A. baumannii HUMC5 (setting [3]) it was 8 µg/mL (≈ 19 µM); in the assay on A. baumannii HUMC4 (setting [4]) it was 4 µg/mL (≈ 9.51 µM); with A. baumannii HUMC12 (setting [5]), 8 µg/mL (≈ 19 µM).
Take `C[C@@H](O)[C@H]1C(=O)N2C(C(=O)O)=C(S[C@@H]3CN[C@H](C(=O)Nc4cccc(C(=O)O)c4)C3)[C@H](C)[C@H]12` [Ertapenem]: the MIC in the assay with A. baumannii HUMC6 (setting [1]) is 32 µg/mL (≈ 67.3 µM); with A. baumannii HUMC1 (setting [6]), 128 µg/mL (≈ 269 µM); against A. baumannii ATCC 17978, 4 µg/mL (≈ 8.41 µM); in the assay on A. baumannii HUMC5 (setting [3]), 32 µg/mL (≈ 67.3 µM); in the assay on A. baumannii HUMC4 (setting [4]), 32 µg/mL (≈ 67.3 µM); in the assay on A. baumannii HUMC12 (setting [5]), 16 µg/mL (≈ 33.6 µM).
For `C[C@@H](O)[C@H]1C(=O)N2C(C(=O)O)=C(SCCN=CN)C[C@H]12` [Imipenem], the MIC with A. baumannii HUMC6 (setting [1]) was 4 µg/mL (≈ 13.4 µM); with A. baumannii HUMC1 (setting [6]), 16 µg/mL (≈ 53.4 µM); against A. baumannii ATCC 17978 it was 0.25 µg/mL (≈ 0.835 µM); in the assay on A. baumannii HUMC5 (setting [3]), 4 µg/mL (≈ 13.4 µM); in the assay with A. baumannii HUMC4 (setting [4]), 4 µg/mL (≈ 13.4 µM); in the assay on A. baumannii HUMC12 (setting [5]), 2 µg/mL (≈ 6.68 µM).
Take `C[C@@H](O)[C@H]1C(=O)N2C(C(=O)O)=C(S[C@@H]3CN[C@H](C(=O)N(C)C)C3)[C@H](C)[C@H]12` [Meropenem]: the MIC in the assay with A. baumannii HUMC6 (setting [1]) came to 8 µg/mL (≈ 20.9 µM); in the assay with A. baumannii HUMC1 (setting [2]), 32 µg/mL (≈ 83.4 µM); against A. baumannii ATCC 17978 it was 0.25 µg/mL (≈ 0.652 µM); in the assay with A. baumannii HUMC5 (setting [3]) it was 8 µg/mL (≈ 20.9 µM); in the assay with A. baumannii HUMC4 (setting [4]), 8 µg/mL (≈ 20.9 µM); in the assay with A. baumannii HUMC12 (setting [5]), 4 µg/mL (≈ 10.4 µM).
`CN(C)c1cc(NC(=O)CNC(C)(C)C)c(O)c2c1C[C@H]1C[C@H]3[C@H](N(C)C)C(O)=C(C(N)=O)C(=O)[C@@]3(O)C(O)=C1C2=O` [Tigecycline]: the MIC is 4 µg/mL (≈ 6.83 µM) with A. baumannii HUMC6 (HUMC6, read-out: Antibacterial Minimum Inhibitory Concentrations); 4 µg/mL (≈ 6.83 µM) in the assay on A. baumannii HUMC1 (setting [2]); 0.25 µg/mL (≈ 0.427 µM) with A. baumannii ATCC 17978; 4 µg/mL (≈ 6.83 µM) in the assay on A. baumannii HUMC5 (HUMC5, read-out: Antibacterial Minimum Inhibitory Concentrations); 4 µg/mL (≈ 6.83 µM) in the assay on A. baumannii HUMC4 (HUMC4, read-out: Antibacterial Minimum Inhibitory Concentrations); 4 µg/mL (≈ 6.83 µM) in the assay with A. baumannii HUMC12 (HUMC12, read-out: Antibacterial Minimum Inhibitory Concentrations).
Consider Ampicillin/sulbactam, for which the “Antibacterial Minimum Inhibitory Concentrations” value with A. baumannii HUMC6 (strain HUMC6) is reported as 32/16; in the assay on A. baumannii HUMC1 (strain HUMC1), 16/8; with A. baumannii HUMC5 (strain HUMC5) it was 32/16; in the assay on A. baumannii HUMC4 (strain HUMC4) it was 32/16; in the assay on A. baumannii HUMC12 (strain HUMC12) it was 32/16.
Turning to Colistin, the “Antibacterial Minimum Inhibitory Concentrations” value with A. baumannii HUMC6 (strain HUMC6), in the assay with A. baumannii HUMC1 (strain HUMC1), in the assay on A. baumannii ATCC 17978, with A. baumannii HUMC5 (strain HUMC5), with A. baumannii HUMC4 (strain HUMC4) and in the assay with A. baumannii HUMC12 (strain HUMC12) was 2 µg/mL throughout.
Regarding Gentamicin, the “Antibacterial Minimum Inhibitory Concentrations” value is over 128 µg/mL with A. baumannii HUMC6 (strain HUMC6); over 128 µg/mL in the assay on A. baumannii HUMC1 (strain HUMC1); 8 µg/mL in the assay on A. baumannii ATCC 17978; over 128 µg/mL in the assay on A. baumannii HUMC5 (strain HUMC5); over 128 µg/mL in the assay with A. baumannii HUMC4 (strain HUMC4); over 128 µg/mL in the assay with A. baumannii HUMC12 (strain HUMC12).
Pipercillin/tazobactam: the “Antibacterial Minimum Inhibitory Concentrations” value with A. baumannii HUMC6 (strain HUMC6), with A. baumannii HUMC1 (strain HUMC1), with A. baumannii HUMC5 (strain HUMC5), in the assay on A. baumannii HUMC4 (strain HUMC4) and with A. baumannii HUMC12 (strain HUMC12) was <128/4 throughout.
